Conductivity data for 2 compounds are collected here from patent US7399731B2, “Electrically conductive non-aqueous wellbore fluid” (M-I L.L.C., priority 2001, dated 2008).

This series can be described thus: Electrical conductivity of solutions of the organic salts in non-aqueous solvents. It counts as physicochemical. The procedure: A variety of metal carboxylates were prepared in heptane by reacting versatic acid and 2-ethyl hexanoic acid directly with the metal of choice or with a metal base such as the hydride or hydroxide. Lithium, sodium, potassium, rubidium, calcium and gadolinium systems were synthesised.
A 1 molar solution of potassium bis(2-ethylhexyl) phosphate in Brij 30 was then prepared by dissolving 18.02 grams of the salt in 47.5 grams (50 ml) of the solubilising agent.
A 1 molar solution of AOT (Aldrich Chemicals) in Brij 30 was prepared by dissolving 22.23 grams of AOT in 47.5 grams (50 ml) of Brij 30.
The final AOT/neopentyl glycol/Brij 30 solution of FIG. 10 (i.e. 1 molar AOT and 2 molar neopentyl glycol in Brij 30) was then diluted with successive amounts of mineral spirits and the conductivity measured at each addition.

Where [1] appears, read: 1 molar salt and 2 molar neopentyl glycol in Brij 30, diluted: 20% solution, 80% mineral spirits by volume.

For the compound `CCCCC(CC)COP(=O)([O-])OCC(CC)CCCC.[K+]` (centres unmarked) [potassium bis(2-ethylhexyl) phosphate], the conductivity under setting [1] is 3.2 ìS/cm and the conductivity (1 molar solution in Brij 30) was 45.5 ìS/cm.
In the case of `CCCCC(CC)COC(=O)CC(C(=O)OCC(CC)CCCC)S(=O)(=O)O.[Na]` (centres unmarked) [AOT, sodium salt of bis(2-ethylhexyl) sulfosuccinate], the conductivity is recorded as 33.5 ìS/cm (1 molar in Brij 30 with 2.0 molar neopentyl glycol, 25° C.); 1.5 ìS/cm under setting [1]; 15.7 ìS/cm (1 molar solution in Brij 30).
